Patent publication US12492173B2, “Herbicidal substituted N-tetrazolyl aryl carboxamides” (Bayer Aktiengesellschaft, priority 2019, dated 2025)

Experiments:
Assay type in all cases: in vivo
Abutilon theophrasti = assay: Pre-emergence herbicidal action, ABUTH; details: dosage 320 g/ha, scored visually after 3 weeks vs untreated controls (100% = plants have died)
Method in brief: (§1)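 Visual scoring after 3 weeks in the greenhouse, relative to untreated pots, gave percent activity, where 100% means dead plants and 0% equals controls. Treatment was a pre-emergence soil-surface spray of WP or EC formulations in water (600 to 800 l/ha, 0.2% wetting agent) over seeds covered in sandy loam.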

Echinochloa crus-galli = assay: Post-emergence herbicidal action, ECHCG; parameters: key: % herbicidal action vs untreated; 100 = plants died, 0 = like control
Method in brief: (§2)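 WP or EC formulations, diluted in water at 600 to 800 l/ha with 0.2% wetting agent, are sprayed onto green parts of one-leaf-stage plants grown in sandy loam. Visual assessment of percent damage relative to untreated controls follows after approximately 3 weeks in the greenhouse.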

Setaria viridis = assay: Pre-emergence herbicidal action, SETVI; details: dosage 320 g/ha, scored visually after 3 weeks vs untreated controls (100% = plants have died)
Method in brief: as §1

Amaranthus retroflexus = assay: Pre-emergence herbicidal action, AMARE; details: dosage 320 g/ha, scored visually after 3 weeks vs untreated controls (100% = plants have died)
Method in brief: as §1

Matricaria inodora = assay: Post-emergence herbicidal action, MATIN; parameters: key: % herbicidal action vs untreated; 100 = plants died, 0 = like control
Method in brief: as §2

Stellaria media = assay: Pre-emergence herbicidal action, STEME; details: dosage 320 g/ha, scored visually after 3 weeks vs untreated controls (100% = plants have died)
Method in brief: as §1

[1] = comparative experiment, post-emergence, 5 g of a.i./ha

Compound: Cn1nnnc1NC(=O)c1ccc(C(F)(F)F)c(C[S+](C)[O-])c1Cl (racemic) [Example 1-297]
- herbicidal activity ABUTH (Abutilon theophrasti): 100%
- herbicidal action ECHCG (Echinochloa crus-galli; post-emergence, dosage 80 g/ha): 100%
- herbicidal activity SETVI (Setaria viridis): 100%
- herbicidal activity AMARE (Amaranthus retroflexus): 100%
- herbicidal action MATIN (Matricaria inodora; post-emergence, dosage 80 g/ha): 100%
- herbicidal activity STEME (Stellaria media): 90%

Compound: Cc1c(C(=O)Nc2nnnn2C)ccc(C(F)(F)F)c1C[S+](C)[O-] (stereo not drawn) [Example 1-84]
- herbicidal activity ABUTH (Abutilon theophrasti): 100%
- herbicidal action ECHCG (Echinochloa crus-galli; post-emergence, dosage 80 g/ha): 90%
- herbicidal activity SETVI (Setaria viridis): 100%
- herbicidal action MATIN (Matricaria inodora; post-emergence, dosage 80 g/ha): 100%
- herbicidal activity STEME (Stellaria media): 100%

Compound: Cc1c(C(=O)Nc2nnnn2C)ccc(C(F)(F)F)c1CS(C)(=O)=O [Example 1-85]
- herbicidal activity ABUTH (Abutilon theophrasti): 100%
- herbicidal action ECHCG (Echinochloa crus-galli; Dosage 80 g/ha): 90
- herbicidal activity SETVI (Setaria viridis): 100%
- herbicidal activity AMARE (Amaranthus retroflexus): 100%
- herbicidal action MATIN (Matricaria inodora; Dosage 80 g/ha): 100
- herbicidal activity STEME (Stellaria media): 100%

Compound: CCSCc1c(C(F)(F)F)ccc(C(=O)Nc2nnnn2C)c1C [Example 1-86]
- herbicidal activity ABUTH (Abutilon theophrasti): 100%
- herbicidal action ECHCG (Echinochloa crus-galli; post-emergence, dosage 80 g/ha): 80%
- herbicidal activity SETVI (Setaria viridis): 100%
- herbicidal activity AMARE (Amaranthus retroflexus): 100%
- herbicidal action MATIN (Matricaria inodora; post-emergence, dosage 80 g/ha): 100%

Compound: CSCc1c(C(F)F)ccc(C(=O)Nc2nnnn2C)c1C [Example 1-107, 4-(difluoromethyl)-2-methyl-3-[(methylsulfanyl)methyl]-N-(1-methyl-1H-tetrazol-5-yl)benzamide]
- herbicidal activity ABUTH (Abutilon theophrasti): 100%
- herbicidal action ECHCG (Echinochloa crus-galli; Dosage 80 g/ha): 90
- Herbicidal action against ECHCG (Echinochloa crus-galli; [1]): 80
- herbicidal activity SETVI (Setaria viridis): 100%
- herbicidal activity AMARE (Amaranthus retroflexus): 100%
- herbicidal action MATIN (Matricaria inodora; Dosage 80 g/ha): 90
- herbicidal activity STEME (Stellaria media): 90%

Compound: Cc1c(C(=O)Nc2nnnn2C)ccc(C(F)F)c1CS(C)(=O)=O [Example 1-109]
- herbicidal activity ABUTH (Abutilon theophrasti): 100%
- herbicidal action ECHCG (Echinochloa crus-galli; Dosage 80 g/ha): 100
- herbicidal activity SETVI (Setaria viridis): 100%
- herbicidal activity AMARE (Amaranthus retroflexus): 100%
- herbicidal action MATIN (Matricaria inodora; Dosage 80 g/ha): 100

Compound: COc1c(C(=O)Nc2nnnn2C)ccc(C(F)(F)F)c1CSC [Example 1-134]
- herbicidal activity ABUTH (Abutilon theophrasti): 100%
- herbicidal action ECHCG (Echinochloa crus-galli; Dosage 80 g/ha): 100
- Herbicidal action against ECHCG (Echinochloa crus-galli; post-emergence, dosage 80 g/ha): 90
- herbicidal activity SETVI (Setaria viridis): 100%
- herbicidal activity AMARE (Amaranthus retroflexus): 100%
- herbicidal action MATIN (Matricaria inodora; Dosage 80 g/ha): 100
- Herbicidal action against MATIN (Matricaria inodora; [1]): 90
- Herbicidal action against MATIN (Matricaria inodora; post-emergence, dosage 80 g/ha): 100

Compound: CSCc1c(C(F)(F)F)ccc(C(=O)Nc2nnnn2C)c1SC [Example 1-161]
- herbicidal activity ABUTH (Abutilon theophrasti): 100%
- herbicidal action ECHCG (Echinochloa crus-galli; Dosage 80 g/ha): 90
- herbicidal activity SETVI (Setaria viridis): 100%
- herbicidal activity AMARE (Amaranthus retroflexus): 100%
- herbicidal action MATIN (Matricaria inodora; Dosage 80 g/ha): 100
- herbicidal activity STEME (Stellaria media): 100%

Compound: CCSCc1c(C(F)F)ccc(C(=O)Nc2nnnn2C)c1SCC [Example 1-191]
- herbicidal activity ABUTH (Abutilon theophrasti): 100%
- herbicidal action ECHCG (Echinochloa crus-galli; Dosage 80 g/ha): 100
- herbicidal activity SETVI (Setaria viridis): 100%
- herbicidal activity AMARE (Amaranthus retroflexus): 100%
- herbicidal action MATIN (Matricaria inodora; Dosage 80 g/ha): 90
- herbicidal activity STEME (Stellaria media): 100%

Compound: CSCc1c(C(F)(F)F)ccc(C(=O)Nc2nnnn2C)c1F [Example 1-242]
- herbicidal activity ABUTH (Abutilon theophrasti): 100%
- herbicidal action ECHCG (Echinochloa crus-galli; Dosage 80 g/ha): 100
- herbicidal activity SETVI (Setaria viridis): 100%
- herbicidal activity AMARE (Amaranthus retroflexus): 100%
- herbicidal action MATIN (Matricaria inodora; Dosage 80 g/ha): 90
- herbicidal activity STEME (Stellaria media): 90%

Compound: Cn1nnnc1NC(=O)c1ccc(C(F)(F)F)c(C[S+](C)[O-])c1F (stereo not drawn) [Example 1-243]
- herbicidal activity ABUTH (Abutilon theophrasti): 100%
- herbicidal action ECHCG (Echinochloa crus-galli; Dosage 80 g/ha): 100
- herbicidal activity SETVI (Setaria viridis): 100%
- herbicidal activity AMARE (Amaranthus retroflexus): 100%
- herbicidal action MATIN (Matricaria inodora; Dosage 80 g/ha): 100
- herbicidal activity STEME (Stellaria media): 90%

Compound: Cn1nnnc1NC(=O)c1ccc(C(F)(F)F)c(CS(C)(=O)=O)c1F [Example 1-244]
- herbicidal activity ABUTH (Abutilon theophrasti): 100%
- herbicidal action ECHCG (Echinochloa crus-galli; Dosage 80 g/ha): 90
- herbicidal activity SETVI (Setaria viridis): 100%
- herbicidal activity AMARE (Amaranthus retroflexus): 100%
- herbicidal action MATIN (Matricaria inodora; Dosage 80 g/ha): 100
- herbicidal activity STEME (Stellaria media): 90%

Compound: Cc1ccc(C(=O)Nc2nnnn2C)c(Cl)c1CS(C)(=O)=O [Example 1-289]
- herbicidal activity ABUTH (Abutilon theophrasti): 90%
- herbicidal action ECHCG (Echinochloa crus-galli; Dosage 80 g/ha): 100
- herbicidal activity SETVI (Setaria viridis): 90%
- herbicidal activity AMARE (Amaranthus retroflexus): 100%
- herbicidal action MATIN (Matricaria inodora; Dosage 80 g/ha): 100
- herbicidal activity STEME (Stellaria media): 90%

Compound: CSCc1c(C(F)(F)F)ccc(C(=O)Nc2nnnn2C)c1Cl [Example 1-296]
- herbicidal activity ABUTH (Abutilon theophrasti): 100%
- herbicidal action ECHCG (Echinochloa crus-galli; post-emergence, dosage 80 g/ha): 100%
- herbicidal activity SETVI (Setaria viridis): 100%
- herbicidal activity AMARE (Amaranthus retroflexus): 100%
- herbicidal action MATIN (Matricaria inodora; post-emergence, dosage 80 g/ha): 100%
- herbicidal activity STEME (Stellaria media): 100%
